The values below come from paper PMC4352033, “SD-208, a Novel Protein Kinase D Inhibitor, Blocks Prostate Cancer Cell Proliferation and Tumor Growth In Vivo by Inducing G2/M Cell Cycle Arrest” (PLoS ONE, 2015).

Common to all, as to type: biochemical
The target in one experiment is T1, PKCα (Homo sapiens, UniProt P17252).
T1 construct: gene PRKCA; recombinant PKCα

The target in another experiment is T2, PKCδ (Homo sapiens, UniProt Q05655).
T2 construct: gene PRKCD; recombinant PKCδ
The experiment can be described thus: in vitro radiometric PKC kinase assay.

In a further experiment the target is T3, protein kinase D1 (PKD1) (Homo sapiens, UniProt Q15139).
T3 construct: gene PRKD1; GST-tagged recombinant human PKD1
T3 sequence (Q15139 1-912): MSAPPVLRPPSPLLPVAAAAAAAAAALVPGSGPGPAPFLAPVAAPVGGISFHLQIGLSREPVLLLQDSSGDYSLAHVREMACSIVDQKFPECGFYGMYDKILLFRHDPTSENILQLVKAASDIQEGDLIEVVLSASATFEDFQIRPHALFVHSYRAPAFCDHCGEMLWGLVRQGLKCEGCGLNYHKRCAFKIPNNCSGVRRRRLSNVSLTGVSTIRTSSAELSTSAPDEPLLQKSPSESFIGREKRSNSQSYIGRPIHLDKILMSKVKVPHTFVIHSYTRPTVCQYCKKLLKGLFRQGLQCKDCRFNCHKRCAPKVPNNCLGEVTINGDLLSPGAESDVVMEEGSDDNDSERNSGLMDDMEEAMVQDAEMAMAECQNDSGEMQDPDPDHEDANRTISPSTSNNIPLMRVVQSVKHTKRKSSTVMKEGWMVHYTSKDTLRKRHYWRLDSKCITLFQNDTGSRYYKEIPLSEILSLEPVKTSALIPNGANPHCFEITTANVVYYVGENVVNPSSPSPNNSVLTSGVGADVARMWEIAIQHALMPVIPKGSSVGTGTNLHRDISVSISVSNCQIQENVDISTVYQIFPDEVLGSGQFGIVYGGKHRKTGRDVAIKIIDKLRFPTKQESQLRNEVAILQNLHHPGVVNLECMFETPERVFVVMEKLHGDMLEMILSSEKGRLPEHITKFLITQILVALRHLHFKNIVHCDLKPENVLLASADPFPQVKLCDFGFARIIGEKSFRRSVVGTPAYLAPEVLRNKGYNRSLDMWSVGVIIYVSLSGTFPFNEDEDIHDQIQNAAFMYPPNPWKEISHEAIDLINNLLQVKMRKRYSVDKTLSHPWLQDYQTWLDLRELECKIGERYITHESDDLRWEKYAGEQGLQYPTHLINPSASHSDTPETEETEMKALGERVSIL
The experiment can be described thus: in vitro radiometric kinase assay, 10-point curve; Lineweaver-Burk.

The target in a further experiment is T4, PKD3 (Homo sapiens, UniProt O94806).
T4 construct: gene PRKD3; recombinant human PKD3
T4 sequence (O94806 1-890): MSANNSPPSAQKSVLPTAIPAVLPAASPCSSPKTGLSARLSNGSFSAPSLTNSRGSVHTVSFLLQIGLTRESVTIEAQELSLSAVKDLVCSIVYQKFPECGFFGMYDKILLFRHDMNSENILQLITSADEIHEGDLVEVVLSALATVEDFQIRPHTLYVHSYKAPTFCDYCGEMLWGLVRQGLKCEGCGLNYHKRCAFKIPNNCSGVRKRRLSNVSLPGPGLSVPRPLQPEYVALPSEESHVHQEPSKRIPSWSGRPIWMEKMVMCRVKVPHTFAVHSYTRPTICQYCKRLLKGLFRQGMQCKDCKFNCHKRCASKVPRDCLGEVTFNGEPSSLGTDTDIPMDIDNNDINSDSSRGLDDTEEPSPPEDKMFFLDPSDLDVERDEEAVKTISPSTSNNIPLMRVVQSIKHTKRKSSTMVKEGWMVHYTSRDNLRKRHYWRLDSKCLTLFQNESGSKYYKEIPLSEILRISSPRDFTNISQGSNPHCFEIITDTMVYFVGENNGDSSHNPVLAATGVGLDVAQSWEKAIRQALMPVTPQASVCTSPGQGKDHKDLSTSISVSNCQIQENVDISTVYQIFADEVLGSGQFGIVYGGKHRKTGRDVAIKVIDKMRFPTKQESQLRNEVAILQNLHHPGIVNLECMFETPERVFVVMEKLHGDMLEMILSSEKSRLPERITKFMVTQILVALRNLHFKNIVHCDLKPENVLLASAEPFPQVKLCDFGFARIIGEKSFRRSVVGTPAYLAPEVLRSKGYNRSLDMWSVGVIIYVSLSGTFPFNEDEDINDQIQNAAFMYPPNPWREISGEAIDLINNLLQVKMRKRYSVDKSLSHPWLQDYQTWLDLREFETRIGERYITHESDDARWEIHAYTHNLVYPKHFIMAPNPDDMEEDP
The experiment can be described thus: in vitro radiometric kinase assay, 10-point curve.

The target of another experiment is T5, PKD2 (Homo sapiens, UniProt Q9BZL6).
T5 construct: gene PRKD2; recombinant human PKD2
T5 sequence (Q9BZL6 1-878): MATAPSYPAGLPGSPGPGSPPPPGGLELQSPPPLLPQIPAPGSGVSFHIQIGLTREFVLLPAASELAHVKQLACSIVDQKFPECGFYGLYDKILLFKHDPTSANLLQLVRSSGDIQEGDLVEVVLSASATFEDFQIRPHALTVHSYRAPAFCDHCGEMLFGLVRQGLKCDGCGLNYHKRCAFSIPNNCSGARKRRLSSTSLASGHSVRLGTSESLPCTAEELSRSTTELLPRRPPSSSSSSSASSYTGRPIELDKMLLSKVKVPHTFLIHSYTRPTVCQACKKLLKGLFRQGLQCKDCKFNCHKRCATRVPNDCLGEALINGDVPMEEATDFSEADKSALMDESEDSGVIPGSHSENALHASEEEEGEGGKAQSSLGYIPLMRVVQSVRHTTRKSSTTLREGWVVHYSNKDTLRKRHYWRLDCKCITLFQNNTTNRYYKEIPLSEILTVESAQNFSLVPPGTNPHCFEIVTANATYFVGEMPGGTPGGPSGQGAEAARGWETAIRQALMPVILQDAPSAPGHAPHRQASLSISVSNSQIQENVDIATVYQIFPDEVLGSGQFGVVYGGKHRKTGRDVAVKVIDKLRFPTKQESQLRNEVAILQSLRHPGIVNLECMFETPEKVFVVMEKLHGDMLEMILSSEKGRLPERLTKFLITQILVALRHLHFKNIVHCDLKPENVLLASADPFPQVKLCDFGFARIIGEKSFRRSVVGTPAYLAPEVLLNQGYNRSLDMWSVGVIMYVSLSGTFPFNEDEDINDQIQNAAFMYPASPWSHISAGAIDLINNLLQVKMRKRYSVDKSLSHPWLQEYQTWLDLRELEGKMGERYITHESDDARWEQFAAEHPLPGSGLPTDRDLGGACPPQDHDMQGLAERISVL
The experiment can be described thus: in vitro radiometric kinase assay, 10-point curve.

T2 sequence (Q05655 whole entry): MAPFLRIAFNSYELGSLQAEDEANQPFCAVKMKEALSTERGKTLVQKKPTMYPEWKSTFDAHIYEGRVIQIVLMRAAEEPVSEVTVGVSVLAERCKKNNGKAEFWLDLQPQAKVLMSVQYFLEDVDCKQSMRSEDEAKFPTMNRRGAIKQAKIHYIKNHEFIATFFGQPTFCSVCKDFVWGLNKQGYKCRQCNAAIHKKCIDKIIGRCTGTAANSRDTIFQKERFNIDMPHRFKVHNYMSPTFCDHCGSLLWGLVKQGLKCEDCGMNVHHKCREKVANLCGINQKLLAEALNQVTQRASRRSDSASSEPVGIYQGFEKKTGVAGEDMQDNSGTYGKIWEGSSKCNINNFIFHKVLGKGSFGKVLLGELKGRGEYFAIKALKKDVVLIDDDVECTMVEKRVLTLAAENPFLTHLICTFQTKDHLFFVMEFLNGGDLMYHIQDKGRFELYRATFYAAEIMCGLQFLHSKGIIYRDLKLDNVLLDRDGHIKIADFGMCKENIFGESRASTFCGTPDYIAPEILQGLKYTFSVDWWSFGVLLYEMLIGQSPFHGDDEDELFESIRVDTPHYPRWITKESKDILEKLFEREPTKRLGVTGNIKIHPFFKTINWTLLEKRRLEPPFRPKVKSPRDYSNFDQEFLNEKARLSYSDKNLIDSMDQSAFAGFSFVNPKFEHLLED

As to `CN(C)CCCn1cc(C2=C(c3c[nH]c4ccccc34)C(=O)NC2=O)c2ccccc21` [GF109203X], the “in vitro radiometric PKC kinase assay” value is “GF109203X was tested as a positive control and it potently and concentration-dependently inhibited PKCα and PKCδ” at PKCα; “GF109203X was tested as a positive control and it potently and concentration-dependently inhibited PKCα and PKCδ” at PKCδ.

Regarding `Fc1ccc(Cl)cc1-c1nc(Nc2ccncc2)c2nccnc2n1` [SD-208], the half-inhibitory concentration (IC50) is 107 nM against protein kinase D1 (PKD1), 105 nM against PKD3 and 93.5 nM against PKD2.
